The values that follow come from US12116424B2, “Compounds and compositions for modulating Listeria virulence” (priority 2021, dated 2024).

For this assay, the target named is L. monocytogenes AgrC (Listeria monocytogenes serovar 1/2a, UniProt Q8YAR5). Description: Fluorescence (agr-GFP) reporter agonism assay, ΔagrD reporter strain. Format: cell-based. Further details: Emax: dose or concentration left out as unconfirmed. Conditions: for loss in potency: relative to native AIP. The source says: Construction of Listeria agr Reporter Strains. A gene block was designed and purchased from Integrated DNA Technologies to contain an EagI recognition site, the PII promoter of the agr system, the 3′ UTR of hly, super folder GFP, and a SaII recognition site. The gene block was digested with EagI and SaII, cloned into an EagI/SaII-cut pAM401 plasmid resulting in the plasmid pAM401-KW1, and then transformed into E. coli XL1-Blue competent cells. The insertion into pAM401 was confirmed using Kapa polymerase and primers DAP337 and DAP338, and additional confirmation via commercial sequencing. Purified plasmid was transformed into the conjugative E. coli S17 strain, which was used to conjugate to EGD-e and EGD-e ΔagrD to generate the agr-GFP reporter strains EGD-e:pAM401-KW1 and EGD-e ΔagrD:pAM401-KW1. Conjugation was verified using primers DAP337 and DAP338.
Fluorescence reporter assay protocol. For QS (agr) reporter assays, peptide stock solutions in DMSO (1 mM) were serially diluted in DMSO, and 2 μL of solution was added to each well in a black 96-well plate (polystyrene microtiter plate, Costar). Agonism assays utilized the ΔagrD reporter strain, with 2 μL of 100 μM AIP (final concentration 1 μM) as a positive control and 2 μL of DMSO as a negative control. Antagonism assays utilized the EGD-e reporter strain, with 2 μL of DMSO as a positive control. In both assays, wells containing only BHI media served as negative controls for normalization. An overnight culture of bacteria was diluted 1:50 in fresh BHI, then 198 μL were transferred to each well (excluding the media control wells). Plates were then incubated at 37° C. for 24 hours with shaking at 200 rpm. Fluorescence of GFP (excitation at 500 nm, emission at 540 nm) and OD600 of each well was measured using BioTek Synergy 2 plate reader. Measurements were processed by subtracting background fluorescence (BHI media), correcting by OD600, and the normalizing using the 1 μM AIP or the DMSO control for the agonism and antagonism assays, respectively. Non-linear regression curves were fitted to the data sets in GraphPad Prism 7 by using variable slope (four-parameter) dose-response analysis to obtain potency, efficacy, and statistical information about the activity of tested peptides. Each peptide was tested with three technical replicates and three biological replicates. All data derived from fluorescent reporter strains are represented with data points signifying the mean and error bars signifying the standard deviation from all replicates.
Preparation and Validation of Listeria agr Reporter Strains. In order to facilitate profiling the native AIP and its analogs for agr activity, L. monocytogenes agr GFP reporters were designed and constructed as described above (see Materials and General Methods). Briefly, a plasmid containing the agr promoter region upstream of gfp was transformed into wild-type (EGD-e) and ΔagrD L. monocytogenes strains. The wild-type reporter naturally produces its own AIP and is able to activate AgrC, which may subsequently phosphorylate AgrA for productive binding to DNA and triggering the production of GFP (FIG. 1A). The ΔagrD reporter, lacking the ability to produce its own AIP and thereby activate AgrC, is unable to trigger substantial production of GFP. However, adding exogenous AIP to the ΔagrD reporter results in an increase of fluorescence, indicating agr activity has been restored.

[1] abbreviates: read-out: Max Activation Observed.

Each structure is given as a SMILES string. Like-named read-outs stand apart in the source and are kept apart here. Where a SMILES comes first, the peptide text is derived from it. Bridges are numbered along the chain shown (N, C = ends). [ ]: non-standard residue; d: D form.

L. monocytogenes AgrC, sequence (Q8YAR5 entry or part of it): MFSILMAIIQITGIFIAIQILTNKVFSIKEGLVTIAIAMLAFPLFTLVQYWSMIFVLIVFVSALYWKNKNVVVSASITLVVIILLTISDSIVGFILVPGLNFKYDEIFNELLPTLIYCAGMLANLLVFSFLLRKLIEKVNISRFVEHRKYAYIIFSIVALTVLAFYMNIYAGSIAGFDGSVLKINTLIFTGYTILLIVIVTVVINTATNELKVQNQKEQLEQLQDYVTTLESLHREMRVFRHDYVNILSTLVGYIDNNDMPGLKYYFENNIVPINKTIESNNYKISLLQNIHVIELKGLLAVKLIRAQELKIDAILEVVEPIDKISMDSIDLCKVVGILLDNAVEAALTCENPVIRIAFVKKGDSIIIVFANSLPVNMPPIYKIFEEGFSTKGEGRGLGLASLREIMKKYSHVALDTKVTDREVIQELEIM

With `CSCC[C@@H]1NC(=O)[C@H](Cc2ccccc2)NC(=O)[C@@H](NC(=O)[C@H](C)N)CSC(=O)[C@H](C(C)C)NC(=O)[C@H](Cc2ccc(O)cc2)NC1=O` [AIP F5Y, A-(C-F-M-Y-V)] (H-ACFMYV; thioester 2-C; N-terminus assumed), the Emax under setting [1] is 44.4%.

For `CSCC[C@@H]1NC(=O)[C@H](Cc2ccccc2)NC(=O)[C@@H](NC(=O)[C@H](C)N)CSC(=O)[C@H](C(C)C)NC(=O)[C@@H](Cc2ccccc2)NC1=O` [AIP F5dF, A-(C-F-M-dF-V)] (H-ACFM[dF]V; thioester 2-C; N-terminus assumed), where the note is “agonism”, the loss in potency result is reported as “two orders of magnitude”. For the same compound, the Emax under setting [1] was 72.3%. Moreover, the “agonism activity (in words)” value (ΔagrD reporter) is “maintain some agonism activity”.

As for `CC(C)[C@@H]1NC(=O)[C@H](Cc2ccccc2)NC(=O)[C@H](C)NC(=O)[C@H](Cc2ccccc2)NC(=O)[C@@H](NC(=O)[C@H](C)N)CSC1=O` [AIP M4A, A-(C-F-A-F-V)] (H-ACFAFV; thioester 2-C; N-terminus assumed), the Emax under setting [1] was 53.5%. For the same compound, under “ΔagrD reporter”, the “EC50 (in words)” value was “low micromolar range”; the “agonism activity (in words)” value was “decreased potency and agonism compared to the native AIP”.

Consider `CC(C)[C@@H]1NC(=O)[C@H](Cc2ccccc2)NC(=O)[C@@H](C)NC(=O)[C@H](Cc2ccccc2)NC(=O)[C@@H](NC(=O)[C@H](C)N)CSC1=O` [AIP M4dA, A-(C-F-dA-F-V)] (H-ACF[dA]FV; thioester 2-C; N-terminus assumed), for which the improved potency result (agonism, relative to AIP M4A) is reported as “about four-fold”. For the same compound, under setting [1], the Emax came out at 82%.

With `CSCC[C@@H]1NC(=O)[C@H](Cc2ccccc2)NC(=O)[C@@H](NC(=O)[C@H](C)N)CSC(=O)[C@H](C)NC(=O)[C@H](Cc2ccccc2)NC1=O` [AIP V6A, A-(C-F-M-F-A)] (H-ACFMFA; thioester 2-C; N-terminus assumed), the Emax stood at 69% (read-out: Max Activation) and 69% under setting [1]. In addition, the “agonism activity (in words)” value (ΔagrD reporter) is “decreased potency and agonism compared to the native AIP”.

With `CSCC[C@@H]1NC(=O)[C@H](Cc2ccccc2)NC(=O)[C@@H](NC(=O)[C@H](C)N)CSC(=O)[C@@H](C(C)C)NC(=O)[C@H](Cc2ccccc2)NC1=O` [AIP V6dV, A-(C-F-M-F-dV)] (H-ACFMF[dV]; thioester 2-C; N-terminus assumed), the Emax under setting [1] turned out to be 72.9%.

For `CSCC[C@@H]1NC(=O)[C@H](Cc2ccccc2)NC(=O)[C@@H](NC(C)=O)CSC(=O)[C@H](C(C)C)NC(=O)[C@H](Cc2ccccc2)NC1=O` [Ac-5-mer, Ac-(C-F-M-F-V)] (Ac-CFMFV; thioester 1-C), for the setting “read-out: Max Activation”, the Emax came to 75.3%.

For the compound `CSCC[C@@H]1NC(=O)[C@H](Cc2ccccc2)NC(=O)[C@@H](N)CSC(=O)[C@H](C(C)C)NC(=O)[C@H](Cc2ccccc2)NC1=O` [Compound 5-mer, (C-F-M-F-V)] (H-CFMFV; thioester 1-C), where the note is “agonism”, the loss in potency result was “ten-fold”. Besides, the Emax (read-out: Max Activation) was 110%. Moreover, for the setting “ΔagrD reporter”, the “agonism activity (in words)” value is recorded as “fully maintained its agonism activity”.

Regarding `CSCC[C@@H]1NC(=O)[C@H](Cc2ccccc2)NC(=O)[C@@H](NC(=O)[C@H](C)NC(=O)[C@@H](N)CCCCN)CSC(=O)[C@H](C(C)C)NC(=O)[C@H](Cc2ccccc2)NC1=O` [Compound 7-mer, K-A-(C-F-M-F-V)] (H-KACFMFV; thioester 3-C; N-terminus assumed), the Emax (read-out: Max Activation) was determined as 64.6%.

Regarding `CSCC[C@@H]1NC(=O)[C@H](Cc2ccccc2)NC(=O)[C@@H](NC(=O)[C@H](C)NC(=O)[C@H](CCCCN)NC(=O)[C@@H](N)CO)CSC(=O)[C@H](C(C)C)NC(=O)[C@H](Cc2ccccc2)NC1=O` [Compound 8-mer, S-K-A-(C-F-M-F-V)] (H-SKACFMFV; thioester 4-C; N-terminus assumed), where the note is “read-out: Max Activation”, the Emax turned out to be 71.5%.

Regarding `CSCC[C@@H]1NC(=O)[C@H](Cc2ccccc2)NC(=O)[C@@H](NC(=O)[C@H](C)NC(=O)[C@H](CCCCN)NC(=O)[C@H](CO)NC(=O)[C@@H](N)CCSC)CSC(=O)[C@H](C(C)C)NC(=O)[C@H](Cc2ccccc2)NC1=O` [Compound 9-mer, M-S-K-A-(C-F-M-F-V)] (H-MSKACFMFV; thioester 5-C; N-terminus assumed), the Emax (read-out: Max Activation) was 93.6%.

Consider `CSCC[C@@H]1NC(=O)[C@H](Cc2ccccc2)NC(=O)[C@@H](NC(=O)[C@H](C)NC(=O)[C@H](CCCCN)NC(=O)[C@H](CO)NC(=O)[C@H](CCSC)NC(=O)[C@@H](N)CO)CSC(=O)[C@H](C(C)C)NC(=O)[C@H](Cc2ccccc2)NC1=O` [Compound 10-mer, S-M-S-K-A-(C-F-M-F-V)] (H-SMSKACFMFV; thioester 6-C; N-terminus assumed), for which the Emax (read-out: Max Activation) came to 110%.

As to `CSCC[C@@H]1NC(=O)[C@H](Cc2ccccc2)NC(=O)[C@@H](NC(=O)[C@H](C)NC(=O)[C@H](CCCCN)NC(=O)[C@H](CO)NC(=O)[C@H](CCSC)NC(=O)[C@H](CO)NC(=O)[C@@H](N)CO)CSC(=O)[C@H](C(C)C)NC(=O)[C@H](Cc2ccccc2)NC1=O` [Compound 11-mer, S-S-M-S-K-A-(C-F-M-F-V)] (H-SSMSKACFMFV; thioester 7-C; N-terminus assumed), under “read-out: Max Activation”, the Emax worked out at 111%.

Consider `CSCC[C@H](NC(=O)[C@H](CO)NC(=O)[C@H](CO)NC(=O)[C@@H](N)CC(=O)O)C(=O)N[C@@H](CO)C(=O)N[C@@H](CCCCN)C(=O)N[C@@H](C)C(=O)N[C@H]1CSC(=O)[C@H](C(C)C)NC(=O)[C@H](Cc2ccccc2)NC(=O)[C@H](CCSC)NC(=O)[C@H](Cc2ccccc2)NC1=O` [Compound 12-mer, D-S-S-M-S-K-A-(C-F-M-F-V)] (H-DSSMSKACFMFV; thioester 8-C; N-terminus assumed), for which, under “read-out: Max Activation”, the Emax came to 116%.

Regarding `CSCC[C@H](NC(=O)[C@H](CO)NC(=O)[C@H](CO)NC(=O)[C@H](CC(=O)O)NC(=O)[C@H](C)N)C(=O)N[C@@H](CO)C(=O)N[C@@H](CCCCN)C(=O)N[C@@H](C)C(=O)N[C@H]1CSC(=O)[C@H](C(C)C)NC(=O)[C@H](Cc2ccccc2)NC(=O)[C@H](CCSC)NC(=O)[C@H](Cc2ccccc2)NC1=O` [Compound 13-mer, A-D-S-S-M-S-K-A-(C-F-M-F-V)] (H-ADSSMSKACFMFV; thioester 9-C; N-terminus assumed), the Emax (read-out: Max Activation) was found to be 108%.

For `CSCC[C@H](NC(=O)[C@H](CO)NC(=O)[C@H](CO)NC(=O)[C@H](CC(=O)O)NC(=O)[C@H](C)NC(=O)[C@@H](N)C(C)C)C(=O)N[C@@H](CO)C(=O)N[C@@H](CCCCN)C(=O)N[C@@H](C)C(=O)N[C@H]1CSC(=O)[C@H](C(C)C)NC(=O)[C@H](Cc2ccccc2)NC(=O)[C@H](CCSC)NC(=O)[C@H](Cc2ccccc2)NC1=O` [Compound 14-mcr, V-A-D-S-S-M-S-K-A-(C-F-M-F-V)] (H-VADSSMSKACFMFV; thioester 10-C; N-terminus assumed), where the note is “read-out: Max Activation”, the Emax amounted to 105%.

As to `CSCC[C@H](NC(=O)[C@H](CO)NC(=O)[C@H](CO)NC(=O)[C@H](CC(=O)O)NC(=O)[C@H](C)NC(=O)[C@@H](NC(=O)[C@@H](N)CCCCN)C(C)C)C(=O)N[C@@H](CO)C(=O)N[C@@H](CCCCN)C(=O)N[C@@H](C)C(=O)N[C@H]1CSC(=O)[C@H](C(C)C)NC(=O)[C@H](Cc2ccccc2)NC(=O)[C@H](CCSC)NC(=O)[C@H](Cc2ccccc2)NC1=O` [Compound 15-mer, K-V-A-D-S-S-M-S-K-A-(C-F-M-F-V)] (H-KVADSSMSKACFMFV; thioester 11-C; N-terminus assumed), the Emax (read-out: Max Activation) was 122%.

On to `CC(=O)N[C@H]1CSC(=O)[C@H](C(C)C)NC(=O)[C@H](Cc2ccccc2)NC(=O)CNC(=O)[C@H](C(C)C)NC1=O` [L. grandensis tr AIP, Ac-(C-V-G-F-V), reference compound] (Ac-CVGFV; thioester 1-C), for which, where the note is “read-out: Max Activation”, the Emax was 10.1%.

Consider `CSCC[C@@H]1NC(=O)[C@H](CO)NC(=O)[C@@H](NC(=O)[C@H](C)N)CSC(=O)[C@H](C)NC(=O)[C@H](Cc2ccccc2)NC1=O` [L. grayi AIP, A-(C-S-M-F-A), reference compound] (H-ACSMFA; thioester 2-C; N-terminus assumed), for which the Emax (read-out: Max Activation) was 10.7%.
